Results on two compounds are retold here after patent publication US8507010B2, “Compositions comprising quinazoline derivatives” (Shanghai Allist Pharmaceuticals, Inc., priority 2008, dated 2013).

Structures are written as SMILES.

The nature of series [1]: Test on the drug absorption in SD rat, intravenous injection (iv). Type of series: in vivo. The conditions noted are these: male, 5 mg/kg, plasma. As to the method: Intravenous injection (iv): 4 healthy SD rats, male, weighted 200-250 g, were intravenously administered with p-toluenesulfonate of the compound of Example 1 (5 mg/kg). The blood samples were collected at 5 min, 15 min, 0.5 h, 1.5 h, 2.0 h, 3.0 h, 4.0 h, 5.0 h and 7.0 h after administration, which were then isolated to prepare the plasma. The concentrations of the drugs in the plasma were determined by means of liquid phase chromatography/tandem mass spectrometer and the concentration-time curve was obtained.

For series [2], the system named is human ovarian cancer SKOV-3. As to the kind of experiment: Tumor-inhibitory effect on human ovarian cancer SKOV-3 grafted to a BALB/cA nude mouse. Type of series: in vivo. The settings on record: SKOV-3 grafted to BALB/cA nude mouse, high expression of erbB-2; listed as p-toluenesulfonate of N-{-4-[3-chloro-4-(3-fluoro-benzyloxy)phenylamino]quinazol, p-toluenesulfonate. As to the method:
A SKOV-3 tumor tissue in vigorous growth period was selected and incised into uniform pieces with the size of about 1.5 mm^3, which was grafted subcutaneously to the right armpit of a BALB/cA nude mouse (Shanghai Institute of Materia Medica, Chinese Academy of Sciences, grade SPF) with a trocar under sterile conditions. The diameters of the grafted tumors on the nude mouse were measured with a vernier caliper. The animals were grouped randomly when the tumors grew to a size of 80 to 100 mm^3. The tested animal groups were intragastrically administered through mouth as mentioned above once a day for 3 consecutive weeks. The positive control drug MMC (Mitomycin) was intravenously administered once on the first day with a dose of 5 mg/kg (0.9% sterile sodium chloride solution). The negative control group was administered with 0.5% CMC-Na (Carboxymethyl Cellulose-Sodium) with a dose of 0.2 mL/per mouse. The long axis (a) and the short axis (b) of the tumors were measured twice every week and the nude mice were weighed at the same time. According to the formula V=ab^2/2, the volume (mm^3) of the tumor could be calculated. Relative tumor volume (RTV) was calculated from the measurement result (according to the formula: RTV=Vt/V0, wherein V0 is the tumor volume measured upon the grouping time of administration, and Vt is the tumor volume measured each time). The relative tumor proliferation rate T/C(%) was chosen as the index of evaluation of anti-tumor activity, by the formula: T/C(%)=(TRTV/CRTV)×100 TRTV: RTV of the treated group; CRTV: RTV of the negative control group
(§1) Human epidermoid squamous carcinoma A431 grafted to BALB/cA nude mouse is an animal model having high expression of EGFR (erbB-1), and human ovarian cancer SKOV-3 grafted to BALB/cA nude mouse is an animal model having high expression of erbB-2.

Series [3] relates to human epidermoid squamous cancer cell A431. As to the kind of experiment: Tumor-inhibitory effect on human epidermoid squamous cancer cell A431 grafted to a BALB/cA nude mouse. The conditions noted are these: A431 grafted to BALB/cA nude mouse, high expression of EGFR (erbB-1), p-toluenesulfonate. Type of series: in vivo. As to the method: A well-developed solid tumor A431 was selected and incised into several uniform pieces with the size of 2-3 mm under sterile conditions, with one piece being grafted subcutaneously to the right armpit of each of the BALB/cA nude mice using a trocar. 7 days after the grafting, the mice were grouped randomly and were intragastrically administrated through mouth for 13 successive days. The long axis (a) and the short axis (b) of the tumors were measured with a vernier caliper every 4 days. According to the formula V=ab^2/2, the volume of the tumor (mm^3) could be calculated. The tested animals were neck-off killed 23 days after the grafting, and anatomized to obtain the tumors. The tumors were weighed, and the tumor inhibition rate was calculated.
as §1

In series [4] the test system is human epidermoid squamous carcinoma cell A431. The conditions noted are these: stated in CN 200610023526.7 / WO 2007/082434; cited from earlier work.
Series [5] in a line: in vivo. The settings on record: male, SD, rat. As to the method: Intragastric administration (ig): 16 healthy SD rats (Shanghai Super-B&K Laboratory Animal Corp. Ltd., grade SPF), male, weighted 200-250 g, randomly divided into four groups, were each administered intragastrically with a drug: the compound prepared according to Example 1 (21.68 mg/kg), crystalline form A, crystalline form B, or crystalline form C (30 mg/kg) of p-toluenesulfonate of said compound. The blood samples were collected at 0.5 h, 1.0 h, 1.5 h, 2.0 h, 3.0 h, 5.0 h, 7.0 h, 9.0 h, 12 h, and 24 h after administration, which were then isolated to prepare the plasma. The concentrations of the drugs in the plasma were determined by means of liquid phase chromatography/tandem mass spectrometer (Agilent 1200LC/6410B), and the concentration-time curve was obtained.

Series [6] deals with human epidermoid squamous carcinoma cell A431. The settings on record: stated in CN 200610023526.7 / WO 2007/082434; cited from earlier work. This is another data set of the same source.
Series [7] deals with erbB-2 kinase (Homo sapiens, UniProt P04626). The conditions noted are these: stated in CN 200610023526.7 / WO 2007/082434; cited from earlier work.
The test system of series [8] is human breast cancer cell BT-474. The conditions noted are these: stated in CN 200610023526.7 / WO 2007/082434; cited from earlier work.

Chain of erbB-2 kinase (P04626 23-1255): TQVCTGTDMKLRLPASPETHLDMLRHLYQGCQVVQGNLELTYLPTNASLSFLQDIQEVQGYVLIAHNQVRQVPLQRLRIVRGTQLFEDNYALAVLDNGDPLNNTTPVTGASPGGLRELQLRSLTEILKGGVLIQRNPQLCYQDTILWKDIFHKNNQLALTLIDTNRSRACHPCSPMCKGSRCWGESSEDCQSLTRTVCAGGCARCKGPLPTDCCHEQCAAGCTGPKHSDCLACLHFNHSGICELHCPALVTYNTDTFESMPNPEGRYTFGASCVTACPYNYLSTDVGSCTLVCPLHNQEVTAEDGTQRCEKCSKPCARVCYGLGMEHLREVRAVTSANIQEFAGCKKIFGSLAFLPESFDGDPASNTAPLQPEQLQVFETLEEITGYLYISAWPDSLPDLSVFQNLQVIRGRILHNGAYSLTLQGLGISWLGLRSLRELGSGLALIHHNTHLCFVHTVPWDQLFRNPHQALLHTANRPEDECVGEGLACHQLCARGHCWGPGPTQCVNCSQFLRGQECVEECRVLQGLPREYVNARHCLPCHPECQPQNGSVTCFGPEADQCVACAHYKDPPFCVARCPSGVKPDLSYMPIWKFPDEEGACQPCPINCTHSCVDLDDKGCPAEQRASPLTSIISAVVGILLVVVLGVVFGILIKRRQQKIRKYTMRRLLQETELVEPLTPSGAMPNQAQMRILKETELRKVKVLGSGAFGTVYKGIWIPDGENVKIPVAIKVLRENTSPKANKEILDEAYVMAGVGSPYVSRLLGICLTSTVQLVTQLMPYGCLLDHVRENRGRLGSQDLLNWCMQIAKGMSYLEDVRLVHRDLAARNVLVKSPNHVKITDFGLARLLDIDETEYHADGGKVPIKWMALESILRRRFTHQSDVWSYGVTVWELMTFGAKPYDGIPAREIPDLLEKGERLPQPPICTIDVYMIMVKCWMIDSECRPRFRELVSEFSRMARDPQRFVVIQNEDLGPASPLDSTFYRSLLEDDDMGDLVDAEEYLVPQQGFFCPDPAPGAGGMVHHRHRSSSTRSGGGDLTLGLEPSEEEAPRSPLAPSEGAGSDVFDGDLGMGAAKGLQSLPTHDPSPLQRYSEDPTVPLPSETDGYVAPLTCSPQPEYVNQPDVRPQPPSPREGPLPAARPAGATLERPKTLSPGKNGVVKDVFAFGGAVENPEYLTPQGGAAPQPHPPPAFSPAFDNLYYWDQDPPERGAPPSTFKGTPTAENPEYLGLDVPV

In the case of `C=CC(=O)Nc1ccc2ncnc(Nc3ccc(OCc4cccc(F)c4)c(Cl)c3)c2c1.Cc1ccc(S(=O)(=O)O)cc1` [p-toluene sulfonate, N-{4-[3-chloro-4-(3-fluoro-benzyloxy)phenylamino]quinazolin-6-yl}-acrylamide p-toluenesulfonate], in series [1], the AUC(0-t) (as a rule, exposure summed from dosing to a finite time, without extrapolation to infinity) came to 1860 ng·h/mL; the maximum concentration (Cmax) (commonly the highest concentration seen after dosing) was found to be 1740 ng/mL; the Tmax (as a rule, the time at which the peak concentration occurs) is 4.98 min; the half-life (in general, how long it takes for the measured level to halve) was 1.55 h. In addition, the “inhibitory effect on the tumor (in words)” value in series [2] is recorded as “remarkable inhibitory effect on tumor growth”. In addition, in series [3] (listed as p-toluenesulfonate of N-{-4-[3-chloro-4-(3-fluoro-benzyloxy)phenylamino]-quinazo), the “inhibitory effect on the tumor (in words)” value is on record as “significant inhibitory effect on the tumor”. In addition, the “inhibitory effect on the tumor (in words)” value in series [3] (listed as p-toluenesulfonate of N-{-4-[3-chloro-4-(3-fluoro-benzyloxy)phenylamino]quinazol) is recorded as “remarkable inhibitory effect on tumor growth”.
As for `C=CC(=O)Nc1ccc2ncnc(Nc3ccc(OCc4cccc(F)c4)c(Cl)c3)c2c1` [The compound of Example 1, N-{4-[3-chloro-4-(3-fluoro-benzyloxy)phenylamino]quinazolin-6-yl}-acrylamide], the “inhibitory effect on growth of A431 cells (in words)” value in series [4] is “remarkable inhibitory effect”. The bioavailability (usually dose-corrected exposure relative to a reference, in per cent) in series [5] (absolute bioavailability) is 0.95%. The area under the curve AUC(0-t) in series [5] (po, 21.68 mg/kg, AUC0-t) turned out to be 106 ng·h/mL. The same compound showed a Cmax in series [5] (po, 21.68 mg/kg, Cmax) of 32 ng/mL. This compound had a half-life in series [5] (po, 21.68 mg/kg, T1/2) of 1.81 h. The Tmax in series [5] (po, 21.68 mg/kg, Tmax) came to 0.75 h. Further, the “anti-tumor effect on A431 grafted to a nude mouse (in words)” value in series [6] was “obvious anti-tumor effect”. Besides, in series [7], the “inhibitory activity against erbB-2 kinase (in words)” value is reported as “excellent inhibitory activity”. Also, in series [8], the “inhibitory effect on growth of BT-474 cells (in words)” value is on record as “remarkable inhibitory effect”.
